In PubChem BioAssay AID330 (DTP/NCI, 2004):
Several values for one entry are separate records, joined by “and”; a condition that tells them apart may be missing. Equal entries are not always repeated. Inconclusive results and toxic doses are left out.

Test system: P388 leukemia ip, CD2F1 mice, survival T/C
Assay: NCI In Vivo Anticancer Drug Screen. Data for tumor model P388 Leukemia (intraperitoneal) in CD2F1 (CDF1) mice
Settings: endpoint: median survival time, higher = longer survival
In short: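 Mice carrying the transplanted tumor received test compound or vehicle. Survival was recorded in each group, and the value is the treated-group measurement divided by that of the vehicle-treated control group.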

SMILES: COc1cccc2c1C(=O)c1c(O)c3c(c(O)c1C2=O)C[C@@](O)(C(C)=O)C[C@@H]3OC1CC(N(C)C)C(O)C(C)O1 (stereo not given in full)
- T/C (dose: 0.25 mg/kg/injection, schedule: Q01DX009 (ip), vehicle: water): 115 % of control
- T/C (dose: 0.5 mg/kg/injection, schedule: Q01DX009 (ip), vehicle: water): 158 % of control
- T/C (dose: 0.63 mg/kg/injection, schedule: Q04DX003 (ip), vehicle: water): 115 % of control
- T/C (dose: 1.0 mg/kg/injection, schedule: Q01DX009 (ip), vehicle: water): 171 % of control and 190 % of control
- T/C (dose: 1.25 mg/kg/injection, schedule: Q01DX001 (ip), vehicle: water): 116 % of control
- T/C (dose: 1.25 mg/kg/injection, schedule: Q04DX003 (ip), vehicle: water): 100 % of control
- T/C (dose: 2.0 mg/kg/injection, schedule: Q01DX009 (ip), vehicle: water): 200 % of control and 228 % of control
- T/C (dose: 2.16 mg/kg/injection, schedule: Q04DX003 (ip), vehicle: water): 151 % of control
- T/C (dose: 2.5 mg/kg/injection, schedule: Q04DX003 (ip), vehicle: water): 109 % of control
- T/C (dose: 4.0 mg/kg/injection, schedule: Q01DX009 (ip), vehicle: water): 98 % of control and 88 % of control
- T/C (dose: 5.0 mg/kg/injection, schedule: Q04DX003 (ip), vehicle: water): 104 % of control and 121 % of control
- T/C (dose: 6.0 mg/kg/injection, schedule: Q04DX003 (ip), vehicle: water): 170 % of control
- T/C (dose: 10.0 mg/kg/injection, schedule: Q01DX001 (ip), vehicle: water): 154 % of control
- T/C (dose: 10.0 mg/kg/injection, schedule: Q04DX003 (ip), vehicle: water): 199 % of control
- T/C (dose: 16.7 mg/kg/injection, schedule: Q04DX003 (ip), vehicle: water): 93 % of control
- T/C (dose: 20.0 mg/kg/injection, schedule: Q01DX001 (ip), vehicle: water): 169 % of control
- T/C (dose: 20.0 mg/kg/injection, schedule: Q04DX003 (ip), vehicle: water): 123 % of control
- T/C (dose: 40.0 mg/kg/injection, schedule: Q04DX003 (ip), vehicle: water): 114 % of control

SMILES: COP(=O)(OC)O/C(=C/Cl)c1cc(Cl)cc(Cl)c1Cl
- T/C (dose: 100.0 mg/kg/injection, schedule: Q04DX003 (ip), vehicle: Klucel (hydroxypropylcellulose) (HPC)): 102 % of control
- T/C (dose: 200.0 mg/kg/injection, schedule: Q04DX003 (ip), vehicle: Klucel (hydroxypropylcellulose) (HPC)): 100 % of control
- T/C (dose: 400.0 mg/kg/injection, schedule: Q04DX003 (ip), vehicle: Klucel (hydroxypropylcellulose) (HPC)): 111 % of control

SMILES: O=C1c2ccccc2C(=O)C2C1C1(c3ccccc3)OC2(c2ccccc2)c2ccccc21 (stereo not given)
- T/C (dose: 25.0 mg/kg/injection, schedule: Q01DX005 (ip), vehicle: Klucel (hydroxypropylcellulose) (HPC)): 101 % of control
- T/C (dose: 50.0 mg/kg/injection, schedule: Q01DX005 (ip), vehicle: Klucel (hydroxypropylcellulose) (HPC)): 99 % of control
- T/C (dose: 100.0 mg/kg/injection, schedule: Q01DX005 (ip), vehicle: Klucel (hydroxypropylcellulose) (HPC)): 101 % of control

SMILES: C=C(Cn1cc(F)c(=O)n(CC(=C)C(=O)OCC)c1=O)C(=O)OCC
- T/C (dose: 11.25 mg/kg/injection, schedule: Q04DX002 (ip), vehicle: distilled water + Tween-80): 100 % of control
- T/C (dose: 22.5 mg/kg/injection, schedule: Q04DX002 (ip), vehicle: distilled water + Tween-80): 93 % of control
- T/C (dose: 45.0 mg/kg/injection, schedule: Q04DX002 (ip), vehicle: distilled water + Tween-80): 95 % of control
- T/C (dose: 90.0 mg/kg/injection, schedule: Q04DX002 (ip), vehicle: distilled water + Tween-80): 90 % of control
- T/C (dose: 180.0 mg/kg/injection, schedule: Q04DX002 (ip), vehicle: distilled water + Tween-80): 86 % of control

SMILES: Cc1[nH]n(-c2ccc(Cl)cc2)c(=O)c1N=Nc1cccc(C(F)(F)F)c1
- T/C (dose: 50.0 mg/kg/injection, schedule: Q01DX009 (ip), vehicle: saline): 88 % of control
- T/C (dose: 100.0 mg/kg/injection, schedule: Q01DX009 (ip), vehicle: saline): 91 % of control
- T/C (dose: 200.0 mg/kg/injection, schedule: Q01DX009 (ip), vehicle: saline): 93 % of control

SMILES: CCOC(=O)C1C(=O)CN(C(=O)OC)C1C(=O)OCC (stereo not given)
- T/C (dose: 50.0 mg/kg/injection, schedule: Q01DX005 (ip), vehicle: saline with Tween-80): 99 % of control
- T/C (dose: 100.0 mg/kg/injection, schedule: Q01DX005 (ip), vehicle: saline with Tween-80): 95 % of control
- T/C (dose: 200.0 mg/kg/injection, schedule: Q01DX005 (ip), vehicle: saline with Tween-80): 95 % of control

SMILES: CCCCCCCCCCCCCCCCCCCC
- T/C (dose: 6.25 mg/kg/injection, schedule: Q01DX009 (ip), vehicle: other): 112 % of control
- T/C (dose: 12.5 mg/kg/injection, schedule: Q01DX009 (ip), vehicle: other): 90 % of control
- T/C (dose: 25.0 mg/kg/injection, schedule: Q01DX009 (ip), vehicle: other): 111 % of control
- T/C (dose: 50.0 mg/kg/injection, schedule: Q04DX003 (ip), vehicle: other): 91 % of control
- T/C (dose: 100.0 mg/kg/injection, schedule: Q04DX003 (ip), vehicle: other): 91 % of control
